Patent US9206183B2, “Substituted pyrazolo[1,5-a]pyridines as JAK inhibitors” (ALMIRALL, S.A., priority 2010, dated 2015)

Assays:
Assay type in all cases: biochemical
human JAK1 (aa 850-1154) = molecular target: T1, human JAK1 (aa 850-1154) (Homo sapiens, UniProt P23458); experiment: In vitro JAK kinase assay (TR-FRET), JAK1; details: catalytic domain GST-fusion; ATP 3 μM; peptide 60 nM; 30 minutes at room temperature
T1 construct: human JAK1 (aa 850-1154); GST (N); purchased Carna Biosciences; host or cells: baculovirus expression system
T1 sequence (P23458 850-1154): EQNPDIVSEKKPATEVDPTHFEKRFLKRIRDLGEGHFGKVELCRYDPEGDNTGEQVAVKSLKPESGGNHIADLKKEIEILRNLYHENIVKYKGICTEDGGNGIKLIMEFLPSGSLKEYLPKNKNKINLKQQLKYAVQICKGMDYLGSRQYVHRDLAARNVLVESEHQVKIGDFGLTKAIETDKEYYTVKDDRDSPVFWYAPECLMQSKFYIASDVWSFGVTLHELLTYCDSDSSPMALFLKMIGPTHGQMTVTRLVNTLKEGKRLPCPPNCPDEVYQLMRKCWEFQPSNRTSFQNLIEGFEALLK
Protocol: (§1) Compounds were screened for their ability to inhibit JAK1, JAK2 and JAK3 using the assays as indicated below.
(§2) The catalytic domains of human JAK1 (aa 850-1154), JAK2 (aa 826-1132), JAK3 (aa 795-1124) and Tyk2 (aa 871-1187) were expressed as N-terminal GST-fusion proteins using a baculovirus expression system and were purchased from Carna Biosciences. The enzymatic activity was assayed using as substrate a biotinylated peptide, poly (GT)-Biotin (CisBio). The peptide concentration in the reactions was 60 nM for JAK1, 20 nM for JAK2, 140 nM for JAK3 and 50 nM for Tyk2. The degree of phosphorylation was detected by TR-FRET (time-resolved fluorescence energy transfer). IC50s of compounds were measured for each kinase in a reaction mixture containing the enzyme, ATP and the peptide in 8 mM MOPS (pH 7.0), 10 mM MgCl2, 0.05% β-mercaptoethanol, 0.45 mg/ml BSA. The ATP concentration in the reactions was 3 μM for JAK1, 0.2 μM for JAK2, 0.6 μM for JAK3 and 1.8 μM for Tyk2. The enzymatic reactions took place for 30 minutes at room temperature. Then, the reactions were stopped with 20 μL of quench detection buffer (50 mM HEPES, 0.5 M KF, EDTA 0.25 M, 0.1% (w/v) BSA, pH 7.5) containing 0.115 μg/mL of anti-phosphoTyr (PT66)-Cryptate (CisBio) and a variable concentration of SA-XL665 (CisBio) to keep the SA-B ratio constant. Incubate for 3 h and read on Victor 2V spectrofluorometer (PerkinElmer) set to read fluorescence resonance energy transfer.

human JAK3 (aa 795-1124) = molecular target: T2, human JAK3 (aa 795-1124) (Homo sapiens, UniProt P52333); experiment: In vitro JAK kinase assay (TR-FRET), JAK3; details: catalytic domain GST-fusion; ATP 0.6 μM; peptide 140 nM; 30 minutes at room temperature
T2 construct: JAK3 (aa 795-1124); GST (N); purchased Carna Biosciences; host or cells: baculovirus expression system
T2 sequence (P52333 795-1124): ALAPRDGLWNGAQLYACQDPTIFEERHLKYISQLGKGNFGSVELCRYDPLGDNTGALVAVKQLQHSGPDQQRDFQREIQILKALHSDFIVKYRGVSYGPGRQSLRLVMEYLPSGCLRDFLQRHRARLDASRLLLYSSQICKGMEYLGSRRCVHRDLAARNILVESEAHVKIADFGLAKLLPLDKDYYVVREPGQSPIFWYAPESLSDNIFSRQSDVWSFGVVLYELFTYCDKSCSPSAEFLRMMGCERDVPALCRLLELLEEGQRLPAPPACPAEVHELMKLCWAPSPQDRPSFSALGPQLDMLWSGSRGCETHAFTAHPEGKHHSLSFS
Protocol: as §1, §2

human JAK2 (aa 826-1132) = molecular target: T3, human JAK2 (aa 826-1132) (Homo sapiens, UniProt O60674); experiment: In vitro JAK kinase assay (TR-FRET), JAK2; details: catalytic domain GST-fusion; ATP 0.2 μM; peptide 20 nM; 30 minutes at room temperature
T3 construct: JAK2 (aa 826-1132); GST (N); purchased Carna Biosciences; host or cells: baculovirus expression system
T3 sequence (O60674 826-1132): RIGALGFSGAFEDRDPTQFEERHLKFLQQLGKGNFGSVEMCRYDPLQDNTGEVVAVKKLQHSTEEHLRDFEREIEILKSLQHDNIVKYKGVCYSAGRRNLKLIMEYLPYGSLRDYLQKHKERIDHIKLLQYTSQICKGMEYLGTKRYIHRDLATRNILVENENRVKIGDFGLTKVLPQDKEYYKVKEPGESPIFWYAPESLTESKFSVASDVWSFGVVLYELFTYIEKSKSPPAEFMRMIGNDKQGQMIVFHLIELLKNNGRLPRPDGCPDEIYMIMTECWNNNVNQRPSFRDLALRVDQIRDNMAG
Protocol: as §1, §2

| Structure (SMILES) | IC50 (human JAK1 (aa 850-1154)) [µM] | IC50 (human JAK3 (aa 795-1124)) [µM] | IC50 (human JAK2 (aa 826-1132)) [µM] |
| --- | --- | --- | --- |
| N#CCC(=O)N1CCC[C@@H](Nc2ccnc(-c3cnn4ccc(C#N)cc34)n2)C1 [Example 14, 3-(4-{[(3R)-1-(Cyanoacetyl)piperidin-3-yl]amino}pyrimidin-2-yl)pyrazolo[1,5-a]pyridine-5-carbonitrile] | 0.1 to 1 | < 0.1 | < 0.1 |
| O=C(CC(F)(F)F)N1CCC[C@@H](Nc2nc(-c3cnn4ccncc34)ncc2F)C1 [Example 30, 5-Fluoro-2-pyrazolo[1,5-a]pyrazin-3-yl-N-[(3R)-1-(3,3,3-trifluoropropanoyl)piperidin-3-yl]pyrimidin-4-amine] | 0.1 to 1 | < 0.1 | < 0.1 |
| Nc1cnc(-c2cnn3ccncc23)nc1NC1CCOCC1 [Example 35, 2-(Pyrazolo[1,5-a]pyrazin-3-yl)-N^4-(tetrahydro-2H-pyran-4-yl)pyrimidine-4,5-diamine] | 0.1 to 1 | 0.1 to 1 | < 0.1 |
| N#Cc1ccc(N2CCC[C@@H](Nc3ccnc(-c4cnn5ccncc45)n3)C2)nc1 [Example 25, 6-{(3R)-3-[(2-Pyrazolo[1,5-a]pyrazin-3-ylpyrimidin-4-yl)amino]piperidin-1-yl}nicotinonitrile] | 0.1 to 1 | < 0.1 | < 0.1 |
| N#Cc1ccn2ncc(-c3nccc(N[C@H]4CC[C@H](O)CC4)n3)c2c1 [Example 19, 3-(4-((Trans)-4-Hydroxycyclohexylamino)pyrimidin-2-yl)pyrazolo[1,5-a]pyridine-5-carbonitrile] | 0.1 to 1 | < 0.1 | < 0.1 |
| C[C@H](Nc1nc(-c2cnn3ccncc23)ncc1Cl)c1ccc(F)cn1 [Example 37, (S)-5-Chloro-N-(1-(5-fluoropyridin-2-yl)ethyl)-2-(pyrazolo[1,5-a]pyrazin-3-yl)pyrimidin-4-amine] | < 0.1 | < 0.1 | < 0.1 |
| N#Cc1ccn2ncc(-c3nccc(NCC(F)(F)F)n3)c2c1 [Example 7, 3-{4-[(2,2,2-Trifluoroethyl)amino]pyrimidin-2-yl}pyrazolo[1,5-a]pyridine-5-carbonitrile] | > 1 | 0.1 to 1 | < 0.1 |
| COC[C@H](C)Nc1ccnc(-c2cnn3ccc(C#N)cc23)n1 [Example 5, 3-(4-{[(1S)-2-Methoxy-1-methylethyl]amino}pyrimidin-2-yl)pyrazolo[1,5-a]pyridine-5-carbonitrile] | 0.1 to 1 | < 0.1 | < 0.1 |
| CN(c1ccnc(-c2cnn3ccncc23)n1)[C@@H]1CCCN(C(=O)CC#N)C1 [Example 27, 3-{(3R)-3-[Methyl(2-pyrazolo[1,5-a]pyrazin-3-ylpyrimidin-4-yl)amino]piperidin-1-yl}-3-oxopropanenitrile] | 0.1 to 1 | < 0.1 | < 0.1 |
| C[C@H](Nc1ccnc(-c2cnn3ccncc23)n1)c1ccccc1 [Example 21, (S)—N-(1-phenylethyl)-2-(pyrazolo[1,5-a]pyrazin-3-yl)pyrimidin-4-amine] | < 0.1 | < 0.1 | < 0.1 |
